Laboratory results as given in patent US9309263B2, “Fused multi-cyclic sulfone compounds as inhibitors of beta-secretase and methods of use thereof” (AMGEN INC., priority 2013, dated 2016).
Like-named read-outs stand apart in the source and are kept apart here.

Key:
[1] = molecular target: Beta Secretase enzyme (BACE) (Homo sapiens, UniProt P56817); assay: In vitro enzymatic BACE FRET assay; type: biochemical; details: read-out: BACE1 FRET assay IC50
Outline: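 Cleavage of a quenched 50 nM FRET peptide substrate, read as fluorescence (excitation 488 nm, […]) after 1 h and Tris quench to neutrality. Buffer: 0.05 M acetate pH 4.2 with 10% DMSO and 100 uM genapol. Inhibitor dilutions were pre-incubated 1 h with 0.2 nM enzyme.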

[2] = system: Aβ 40 in conditioned medium of cells stably expressing Amyloid Precursor Protein (APP); assay: In vitro BACE cell-based assay (Aβ 40 sandwich ELISA); details: Homo sapiens, HEK293
Outline: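 Aβ40 in conditioned medium measured by pAb40/biotin-6E10 sandwich ELISA with time-resolved europium fluorescence, after 24 h exposure of stable APP cells to compounds (10-point series starting 100 μM or 10 μM; 0.1% DMSO). IC50 fitted from percent of control against concentration.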

Cathepsin D (Cat D) = Cathepsin D (Cat D) (Homo sapiens, UniProt P07339); assay: In vitro enzymatic Cathepsin D (Cat D) FRET assay; type: biochemical
Chain of Cathepsin D (Cat D) (P07339 65-412, species assumed): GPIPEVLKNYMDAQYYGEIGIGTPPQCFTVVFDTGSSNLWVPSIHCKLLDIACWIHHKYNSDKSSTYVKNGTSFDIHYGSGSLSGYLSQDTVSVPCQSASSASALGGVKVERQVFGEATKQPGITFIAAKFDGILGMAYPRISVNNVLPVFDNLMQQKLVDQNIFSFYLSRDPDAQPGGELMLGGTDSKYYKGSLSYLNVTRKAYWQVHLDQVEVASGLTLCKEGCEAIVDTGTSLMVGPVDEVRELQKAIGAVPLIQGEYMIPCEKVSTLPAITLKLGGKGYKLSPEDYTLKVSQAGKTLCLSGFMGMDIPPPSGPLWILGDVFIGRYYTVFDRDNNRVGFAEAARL
Outline: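 FRET peptide substrate (20 nM) is cleaved by CHO-derived recombinant enzyme (9 nM) for 1 h after a 1 h inhibitor pre-incubation, at pH 3.5 in citrate buffer with 5 mM CHAPS and 10% DMSO. Tris addition ends the reaction; fluorescence measured at 500 nm excitation, 580 nm emission.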

Abeta 40 = assay: In vivo inhibition of beta-secretase: Abeta 40 reduction in CSF and brain of the rat; details: 10 mpk (unless otherwise noted), after 4 hrs
Source text: In Vivo Inhibition of Beta-Secretase
Several animal models, including mouse, rat, dog, and monkey, may be used to screen for inhibition of beta-secretase activity in vivo following administration of a test compound sample. Animals used in this invention can be wild type, transgenic, or gene knockout animals. For example, the Tg2576 mouse model, prepared and conducted as described in Hsiao et al., 1996, Science 274, 99-102, and other non-transgenic or gene knockout animals are useful to analyze in vivo inhibition of Amyloid beta peptide (Abeta) production in the presence of inhibitory test compounds. Generally, 2 to 18 month old Tg2576 mice, gene knockout mice or non-transgenic animals are administered test compounds formulated in vehicles, such as cyclodextran, phosphate buffers, hydroxypropyl methylcellulose or other suitable vehicles. One to twenty-four hours following the administration of compound, animals are sacrificed, and brains as well as cerebrospinal fluid (CSF) and plasma are removed for analysis of A-beta levels and drug or test compound concentrations (Dovey et al., 2001, Journal of Neurochemistry, 76, 173-181) Beginning at time 0, animals are administered by oral gavage, or other means of delivery such as intravenous injection, an inhibitory test compound of up to 100 mg/kg in a standard, conventional formulation, such as 2% hydroxypropyl methylcellulose, 1% Tween80. A separate group of animals receive 2% hydroxypropyl methylcellulose, 1% Tween80 alone, containing no test compound, and serve as a vehicle-control group. At the end of the test period, animals are sacrificed and brain tissues, plasma or cerebrospinal fluid are collected. Brains are either homogenized in 10 volumes (w/v) of 0.2% diethylamine (DEA) in 50 mM NaCl (Best et al., 2005, Journal of Pharmacology and Experimental Therapeutics, 313, 902-908), or in 10 volumes of 0.5% TritonX-100 in Tris-buffered saline (pH at about 7.6). Homogenates are centrifuged at 355,000 g, 4° C. for 30 minutes. CSF or brain supernatants are then analyzed for the presence of A-beta peptide by specific sandwich ELISA assays based on ECL (Electrochemiluminescence) technology. For example, rat Abeta40 is measured using biotinylated-4G8 (Signet) as a capture antibody and Fab40 (an in-house antibody specific to the C-terminal of Abeta40) as a detection antibody. For example, 4 hours after administration of 30 mg/kg oral dose of the test compound in 2% hydroxypropyl methylcellulose, 1% Tween80 (pH2.2) to 200 g male Sprague Dawley rats, amyloid beta peptide levels are measured for reduction by X % and Y % in cerebrospinal fluid and brain, respectively, when compared to the levels measured in the vehicle-treated or control […].
Actual vehicles used: Oral: 2% HPMC, 1% Tween80, pH 2.2
• IV: 5% EtOH, 45% Propylene Glycol in 5% Dextrose
The compounds of the invention may be shown to reduce the formation and/or deposition of amyloid beta peptide in the cerebrospinal fluid (CSF) as well as in the brain of a mouse or rat at either 3 mpk, 10 mpk or 30 mpk (mpk=mg compound per kg weight of the animal) dosing concentrations after 4 hrs.

[3] = text summary referring to data in Table 2
[4] = Abeta 40 in CSF of the rat, read-out: % reduction of rat CSF levels at 10 pmk
[5] = Abeta 40 in brain of the rat, read-out: % reduction of rat brain levels at 10 mpk
[6] = average IC50, in vitro enzymatic BACE FRET assay
[7] = average IC50, HEK cell assay, Aβ 40 readout
[8] = Cathepsin D FRET assay, read-out: CatD IC50

Chain of Beta Secretase enzyme (BACE) (P56817 46-501): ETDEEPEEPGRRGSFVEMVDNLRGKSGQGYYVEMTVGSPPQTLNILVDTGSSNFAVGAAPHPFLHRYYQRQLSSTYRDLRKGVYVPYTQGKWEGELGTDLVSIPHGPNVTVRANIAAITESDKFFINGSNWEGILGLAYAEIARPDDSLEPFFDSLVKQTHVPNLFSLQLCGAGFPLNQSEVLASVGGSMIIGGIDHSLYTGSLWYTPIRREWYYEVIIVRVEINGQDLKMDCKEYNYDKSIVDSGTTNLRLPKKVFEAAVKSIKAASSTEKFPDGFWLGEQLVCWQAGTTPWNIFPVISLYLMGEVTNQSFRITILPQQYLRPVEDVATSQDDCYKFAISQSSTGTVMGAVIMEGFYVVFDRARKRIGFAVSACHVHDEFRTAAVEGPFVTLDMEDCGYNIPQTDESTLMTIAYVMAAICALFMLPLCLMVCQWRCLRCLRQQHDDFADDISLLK

IC50 ([1]; average IC50) [µM]	IC50 ([2]; HEK cell, average IC50) [µM]	IC50 (Cathepsin D (Cat D); read-out: CatD IC50) [µM]	IC50 (Cathepsin D (Cat D); [3]) [µM]	IC50 [1, 6] [µM]	IC50 [2, 7] [µM]	IC50 (Cathepsin D (Cat D); [8]) [µM]	IC50 ([2]; HEK cells, average IC50) [µM]	Compound	inhibition in vivo at 10 mg/kg (Abeta 40; [4]) [%]	inhibition in vivo at 10 mg/kg (Abeta 40; [5]) [%]
0.006	0.001	1620	> 1200					Cc1cc(C(F)(F)F)cnc1C(=O)Nc1ccc2c(c1)[C@@]1(C)N=C(N)C(C)(C)S(=O)(=O)[C@@H]1C[C@H](C)O2 [Example 54, N-((4aR,6S,11bR)-2-amino-3,3,6,11b-tetramethyl-4,4-dioxido-4a,5,6,11b-tetrahydro-3H-[1]benzoxepino[4,5-b][1,4]thiazin-10-yl)-3-methyl-5-(trifluoromethyl)-2-pyridinecarboxamide]	76	63
			> 1200	0.012	0.004	2760		C[C@H]1C[C@@H]2[C@](C)(N=C(N)C(C)(C)S2(=O)=O)c2cc(NC(=O)c3ccc(C(F)(F)F)cn3)ccc2O1 [Example 84, N-((4aR,6S,11bR)-2-amino-3,3,6,11b-tetramethyl-4,4-dioxido-4a,5,6,11b-tetrahydro-3H-[1]benzoxepino[4,5-b][1,4]thiazin-10-yl)-5-(trifluoromethyl)-2-pyridinecarboxamide]	70	68
				0.004	0.003	607		C[C@H]1C[C@@H]2[C@](C)(N=C(N)C(C)(C)S2(=O)=O)c2cc(NC(=O)c3ccc(Cl)cn3)ccc2O1 [Example 85, N-((4aR,6S,11bR)-2-amino-3,3,6,11b-tetramethyl-4,4-dioxido-4a,5,6,11b-tetrahydro-3H-[1]benzoxepino[4,5-b][1,4]thiazin-10-yl)-5-chloro-2-pyridinecarboxamide]	79	78
			> 1200	0.003	0.002	1140		C[C@H]1C[C@@H]2[C@](C)(N=C(N)C(C)(C)S2(=O)=O)c2cc(NC(=O)c3ccc(C#N)cn3)ccc2O1 [Example 86, N-((4aR,6S,11bR)-2-amino-3,3,6,11b-tetramethyl-4,4-dioxido-4a,5,6,11b-tetrahydro-3H-[1]benzoxepino[4,5-b][1,4]thiazin-10-yl)-5-cyano-2-pyridinecarboxamide]	79	79

Further lines, the molecule ahead of its results:

Compound	IC50 ([1]; average IC50) [µM]	IC50 ([2]; HEK cell, average IC50) [µM]	IC50 (Cathepsin D (Cat D); read-out: CatD IC50) [µM]	IC50 (Cathepsin D (Cat D); [3]) [µM]	IC50 [1, 6] [µM]	IC50 [2, 7] [µM]	IC50 (Cathepsin D (Cat D); [8]) [µM]	IC50 ([2]; HEK cells, average IC50) [µM]	inhibition in vivo at 10 mg/kg (Abeta 40; [4]) [%]	inhibition in vivo at 10 mg/kg (Abeta 40; [5]) [%]
COc1cnc(C(=O)Nc2ccc3c(c2)[C@@]2(C)N=C(N)C(C)(C)S(=O)(=O)[C@@H]2C[C@H](C)O3)cn1 [Example 55, N-((4aR,6S,11bR)-2-amino-3,3,6,11b-tetramethyl-4,4-dioxido-4a,5,6,11b-tetrahydro-3H-[1]benzoxepino[4,5-b][1,4]thiazin-10-yl)-5-methoxy-2-pyrazinecarboxamide]	0.009	0.004	650						74	70
C[C@H]1C[C@@H]2[C@](C)(N=C(N)C(C)(C)S2(=O)=O)c2cc(Nc3nccc4cc(C#N)cnc34)ccc2O1 [Example 56, 8-(((4aR,6S,11bR)-2-amino-3,3,6,11b-tetramethyl-4,4-dioxido-4a,5,6,11b-tetrahydro-3H-[1]benzoxepino[4,5-b][1,4]thiazin-10-yl)amino)-1,7-naphthyridine-3-carbonitrile]	0.002	0.001	544						70	61
Cc1cc(C(F)(F)F)cnc1C(=O)Nc1ccc2c(c1)[C@@]1(CF)N=C(N)C(C)(C)S(=O)(=O)[C@@H]1C[C@H](C)O2 [Example 104, N-((4aR,6S,11bS)-2-amino-11b-(fluoromethyl)-3,3,6-trimethyl-4,4-dioxido-4a,5,6,11b-tetrahydro-3H-[1]benzoxepino[4,5-b][1,4]thiazin-10-yl)-3-methyl-5-(trifluoromethyl)-2-pyridinecarboxamide]					0.014	0.037	> 400		36	11
CC1(C)C[C@@H]2[C@](C)(N=C(N)C(C)(C)S2(=O)=O)c2cc(Nc3ncnc4cc(C(F)(F)F)cnc34)ccc2O1 [Example 106, (4aR,11bR)-3,3,6,6,11b-pentamethyl-N^~10^~-(7-(trifluoromethyl)pyrido[3,2-d]pyrimidin-4-yl)-4a,5,6,11b-tetrahydro-3H-[1]benzoxepino[4,5-b][1,4]thiazine-2,10-diamine 4,4-dioxide]					0.017	0.009	505		36	36
CC1(C)C[C@@H]2[C@](C)(N=C(N)C(C)(C)S2(=O)=O)c2cc(NC(=O)c3ncc(C(F)(F)F)cc3Cl)ccc2O1 [Example 127, N-((4aR,11bR)-2-amino-3,3,6,6,11b-pentamethyl-4,4-dioxido-4a,5,6,11b-tetrahydro-3H-[1]benzoxepino[4,5-b][1,4]thiazin-10-yl)-3-chloro-5-(trifluoromethyl)-2-pyridinecarboxamide]					0.019	0.007	1020		37	15
C[C@H]1C[C@@H]2[C@](C)(N=C(N)C(C)(C)S2(=O)=O)c2cc(NC(=O)c3ncc(Cl)cc3Cl)ccc2O1 [Example 129, N-((4aR,6S,11bR)-2-amino-3,3,6,11b-tetramethyl-4,4-dioxido-4a,5,6,11b-tetrahydro-3H-[1]benzoxepino[4,5-b][1,4]thiazin-10-yl)-3,5-dichloro-2-pyridinecarboxamide]					0.003	0.002	567		21	18
C[C@H]1C[C@@H]2[C@](C)(N=C(N)C(C)(C)S2(=O)=O)c2cc(Nc3ncnc4cc(C(F)(F)F)cnc34)ccc2O1 [Example 133, (4aR,6S,11bR)-3,3,6,11b-tetramethyl-N^~10^~-(7-(trifluoromethyl)pyrido[3,2-d]pyrimidin-4-yl)-4a,5,6,11b-tetrahydro-3H-[1]benzoxepino[4,5-b][1,4]thiazine-2,10-diamine 4,4-dioxide]					0.01	0.005	427		63	51
CC1(C)C(N)=N[C@]2(C)c3cc(NC(=O)c4ccc(OC(F)F)cn4)ccc3OCC[C@H]2S1(=O)=O [Example 194, N-((4aR,11bR)-2-amino-3,3,11b-trimethyl-4,4-dioxido-4a,5,6,11b-tetrahydro-3H-[1]benzoxepino[4,5-b][1,4]thiazin-10-yl)-5-(difluoromethoxy)-2-pyridinecarboxamide]	0.008		652					0.003		
